# Laboratory results taken from ChEMBL document CHEMBL3997775, “Challenges and Opportunities in the Development of Serine Synthetic Pathway Inhibitors for Cancer Therapy” (J Med Chem, 2017).
# Tested on: not listed separately
# Experiment: Lipophilicity, logD of the compound
# Type: physicochemical
# Settings: octanol/water
row,logD,SMILES
1,< -1,O=C(COc1cc2[nH]c(C(=O)N[C@H](CO)c3ccc(C(=O)O)cc3)cc2cc1Cl)NCCO

# Tested on: not listed separately
# Experiment: Solubility of the compound
# Type: physicochemical
# Settings: not given
row,solubility [µM],SMILES
1,973,O=C(COc1cc2[nH]c(C(=O)N[C@H](CO)c3ccc(C(=O)O)cc3)cc2cc1Cl)NCCO

# Target: T1, D-3-phosphoglycerate dehydrogenase (Homo sapiens, UniProt O43175)
# T1 sequence (O43175 whole entry): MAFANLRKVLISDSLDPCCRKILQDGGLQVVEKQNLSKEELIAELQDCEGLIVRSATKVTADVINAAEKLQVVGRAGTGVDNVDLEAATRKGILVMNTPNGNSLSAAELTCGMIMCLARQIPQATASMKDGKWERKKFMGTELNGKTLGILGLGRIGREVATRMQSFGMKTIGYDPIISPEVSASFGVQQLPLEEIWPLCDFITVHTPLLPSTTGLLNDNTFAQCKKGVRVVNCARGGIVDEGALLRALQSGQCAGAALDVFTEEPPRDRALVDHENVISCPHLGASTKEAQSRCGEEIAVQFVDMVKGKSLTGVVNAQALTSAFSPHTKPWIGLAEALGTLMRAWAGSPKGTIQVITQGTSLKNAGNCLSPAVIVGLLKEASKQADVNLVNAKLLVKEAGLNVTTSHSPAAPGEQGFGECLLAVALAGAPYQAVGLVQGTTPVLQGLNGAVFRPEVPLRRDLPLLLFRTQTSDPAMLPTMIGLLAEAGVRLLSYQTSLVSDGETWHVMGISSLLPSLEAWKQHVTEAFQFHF
# Experiment: Inhibition of full length PHGDH (unknown origin) using 3-phosphoglycerate as substrate incubated for 60 mins in presence of PSAT1, PSPH by resazurin based diaphorase coupled assay
# Settings: not given
row,IC50 [µM],SMILES
1,> 100,O=C(Nc1ccc(S(=O)(=O)NCCCN2CCOCC2)cc1)c1cc(-c2ccccc2O)n[nH]1
2,> 100,O=C(c1cc(-c2ccccc2)n[nH]1)N1CCC2C=C(S(=O)(=O)Nc3ncccn3)C=CC21 (stereo not drawn)
3,< 50,O=C(Nc1ccc(S(=O)(=O)Nc2ncccn2)cc1)c1cc(-c2ccccc2F)n[nH]1
4,50 to 100,O=C(Nc1ccc(S(=O)(=O)Nc2ccccn2)cc1)c1cc(-c2ccccc2)n[nH]1
5,< 50,Cn1nc(-c2ccccc2)cc1C(=O)Nc1ccc(S(=O)(=O)Nc2ncccn2)cc1
6,> 100,O=C(Nc1ccc(S(=O)(=O)NCc2ccco2)cc1)c1cc(-c2ccccc2O)n[nH]1
7,> 100,O=C(Nc1ccc(S(=O)(=O)Nc2ncccn2)cc1)c1cc(-c2ccccc2)on1
8,> 100,O=C(Nc1ccc(S(=O)(=O)Nc2ncccn2)cc1)c1cc(-c2ccccc2)nn1-c1ccccc1
9,> 100,Cc1c(-c2ccccc2)n[nH]c1C(=O)Nc1ccc(S(=O)(=O)Nc2ncccn2)cc1
10,< 50,O=C(Nc1ccc(S(=O)(=O)Nc2ncccn2)cc1)c1cc(-c2ccccc2O)n[nH]1
11,> 100,O=C(Nc1ccc(S(=O)(=O)Nc2ncccn2)cc1)c1cc(-c2ccccc2C(=O)O)n[nH]1
12,> 100,O=C(Nc1ccc(S(=O)(=O)N2CCCCC2)cc1)c1cc(-c2ccccc2O)n[nH]1
13,> 100,O=C(Nc1ccc(S(=O)(=O)Nc2ncccn2)cc1)c1cc(-c2ccccc2)no1
14,> 100,CN(c1ncccn1)S(=O)(=O)c1ccc(NC(=O)c2cc(-c3ccccc3O)n[nH]2)cc1
15,> 100,O=C(Nc1ccc(S(=O)(=O)Nc2ccccn2)cc1)c1cc(-c2ccccc2O)n[nH]1
16,> 100,Nc1ncccc1-c1cc(C(=O)Nc2ccc(S(=O)(=O)Nc3ncccn3)cc2)[nH]n1
17,> 100,NS(=O)(=O)c1ccc(NC(=O)c2cc(-c3ccccc3O)[nH]n2)cc1
18,< 50,O=C(Nc1ccc(S(=O)(=O)Nc2ncccn2)cc1)c1cc(-c2ccccc2)n[nH]1
19,< 50,Cc1ccnc(NS(=O)(=O)c2ccc(NC(=O)c3cc(-c4ccccc4O)n[nH]3)cc2)n1
20,< 50,Cc1cc(C)nc(NS(=O)(=O)c2ccc(NC(=O)c3cc(-c4ccccc4)n[nH]3)cc2)n1
21,< 50,COc1ccccc1-c1cc(C(=O)Nc2ccc(S(=O)(=O)Nc3ncccn3)cc2)[nH]n1
22,> 100,CN(c1ncccn1)S(=O)(=O)c1ccc(NC(=O)c2cc(-c3ccccc3)n[nH]2)cc1

# Target: T2, D-3-phosphoglycerate dehydrogenase (Homo sapiens) (UniProt O43175)
# T2 sequence (whole entry): T1 sequence (O43175 whole entry)
# Experiment: Binding affinity to human N- terminal His6-tagged PHGDH (1 to 533 residues) expressed in Escherichia coli Rosetta (DE3) assessed as change in melting temperature by SYPRO orange dye based DSF assay
# Settings: not given
row,ΔTm [°C],SMILES
1,1.4,Nc1cccc(-c2cnco2)c1
2,2.4,Cc1cccc2cc[nH]c12
3,2.3,NC(=O)c1ccc(F)c(Cl)c1
4,1.7,O=C1COc2cc(O)ccc21
5,2.2,Cn1nc(-c2ccccc2)cc1N
6,2.5,Oc1noc2ccccc12
7,1.3,COc1ccc(NC(C)=O)cc1Cl

# Target: T1, D-3-phosphoglycerate dehydrogenase
# Settings: not given
row,IC50 [µM],SMILES
1,> 57,Cc1cccc(NC(=S)N2CCN(c3cccc(C(F)(F)F)c3)CC2)c1
2,6.5,Cc1cc(C)nc(NC(=S)N2CCN(c3cccc(C(F)(F)F)c3)CC2)c1
